Assay results published in patent publication US20060160897A1, “Topical Use of Valproic Acid for the Prevention or Treatment of Skin Disorders” (priority 2003, published 2006).

Tested on: HaCaT cells
Assay: Apoptosis assay, flow cytometry of Sub-G1 DNA containing cells
Format: cell-based, human
Conditions: drugs day 1, assay day 2, combinations VPA 1 mM + Tazarotene 1 or 2 μM, FIG. 5
Description: Apoptosis assays: Apoptosis was measured by a Beckton Dickinson FACScalibur flow cytometer by analysing the percentage of Sub-G1 DNA containing cells. 10000 events were recorded for each sample. The amplification scale was linear for all parameters. Photomultiplier tension was set as to place the peak DNA content corresponding cells in G0/G1 at channel 300 in the FL2-H vs SCC—H graphs. Cells showing a less than peak DNA content (hypodiploid cells) and high SSC—H (granular high condensed cells) were regarded as apoptotic. The experiments were repeated three times in duplicate. Error bars represent 1 standard deviation.
Cells were plated in 35 mm diameter wells on day 0. Drugs were added on day 1. The apoptosis assay was carried out on day 2. […] Thus, the combinatorial activity of these two drugs must be explained via synergistic activity of this treatment.

CCCC(CCC)C(=O)O [VPA, 2-propyl-pentanoic acid]
apoptosis (Sub-G1 DNA containing cells): clear increase in subG1 DNA content
